Where “and” joins values, the source holds several entries; their conditions need not be identical. Equal entries are not always repeated. Where two headings read alike, the source gives them in different places.
Columns and labels:
[1] = tested on: primary Lmo2^Tg T-ALL; assay: Relative viability and LC50 on primary Lmo2^Tg leukemias, 48 h; assay type: cell-based, mouse; parameters: Relative % viable cells: unit of the concentration uncertain; details: for viability at 200 µM / viability at 40 µM: Mus musculus
Method: Supplementary Figure 6 . Efficacy of Dynole 34-2 on primary Lmo2-transgenic T-ALL. a, Relative viability (%) of primary Lmo2Tg leukemias treated with increasing concentration of Dynole 34-2 for 48 hours. Viability was normalized to vehicle-treated cells with experiments performed in duplicates or triplicates. […]
concentration (LC50) of Dynole 34-2 for each primary L mo2Tg T-ALL are indicated (right panel). […]

[2] = tested on: IL-7 signalling (pStat5) in Ba/F3-IL7R cells; assay: IL-7-induced phospho-Stat5 in Ba/F3-IL7R cells (phosphoflow); assay type: cell-based, murine; details: for pStat5 (MFI): replicates
Method: Ba/F3 cells (kindly provided by a person from The Walter and Eliza Hall Institute of Medical Research) were infected with pMIG-R1/Il7r retroviral supernatants produced in 293T cells, and transduced cells were sorted with a BD Influx (BD Australia) and selected by culture in medium supplemented with 5 ng/mL rmIL-7 (#217-17, Pepro Tech, Rocky Hill NJ, USA) for 7 days. Ba/F3 cells stably expressing Il7r (Ba/F3-IL7R) were infected with TxTCPVIR-Stat5-CA retroviral supernatants produced in 293T. Cell sorting was performed with a BD Influx and transduced cells were treated with doxycycline for 48 h to induce the expression of the Stat5-CA-T2A-mCherry fusion protein.
Phosphoflow analysis was performed as previously described. Briefly, 2 × 10^6 cells stained for surface markers were subsequently resuspended into PBS 1× + 4% v/v paraformaldehyde and incubated for 10 min at 4 °C for fixation. Fixed cells were washed twice using PBS 1×, then resuspended in pre-chilled at −20 °C Perm Buffer III (BD Pharmingen) and incubated 30 min at 4 °C for permeabilization. Cells were washed twice using PBS 1× and incubated overnight at 4 °C in PBS 1× + 2% v/v fetal calf serum (FCS) with Cell Signalling purified antibodies (Genesearch Pty Ltd, Arundel QLD, Australia) against pSTAT5 (Tyr694; #9359), phospho-p38 MAPK (Thr180/Tyr182; #4511), phospho-p44/42 (Erk1/2; #9102), phospho-S6 (Ser235/236; #4856) and phospho-Akt (Ser473; #9271) or isotype control. For intracellular HES1 detection, cells stained for surface markers were subsequently fixed and permeabilized using the BD Cytofix/Cytoperm^TM Kit and incubated overnight at 4 °C in PBS 1× + 2% v/v FCS with a purified antibody against HES1 (D6PU; #11988, Cell Signalling) or isotype control. After staining with primary antibodies for phosphoflow or intracellular detection, cells were incubated in permeabilization buffer with donkey Alexa Fluor 488-conjugated anti-rabbit secondary antibody (A-21206, lot #1910751, Molecular Probes, Invitrogen) or goat Alexa Fluor 546-conjugated anti-rabbit secondary antibody (A-11035, lot #1904467, Molecular Probes, Invitrogen) for 1 h on ice, and washed twice in PBS 1×. Fluorescence-activated cell sorting (FACS) analysis was performed using LSRII and LSR Fortessa cytometers, following the gating strategies described in Supplementary Fig. 11. Cell sorting was performed with a FACSAria or BD Influx.
For in vitro IL-7 stimulation assays, cells were starved in serum-free DMEM at 37 °C, then incubated with either vehicle or Dynole 34-2 or Ruxolitinib (INCB018424; #S1378, Selleckchem), or DAPT (GSI-IX; #S2215, Selleckchem) resuspended in DMSO for 1 h. Thymocytes were subsequently stimulated with 25 ng/mL IL-7 at 37 °C for 20 min and washed twice using cold PBS 1×. Cells were incubated with 25 ng/mL Rat IgG (Sigma-Aldrich Pty Ltd, Castle Hill NSW, Australia) and with a PE-conjugated antibody for detection of IL-7R (CD127) for 1 h on ice, as described in the FACS analysis section. PE-conjugated isotype was used as negative control. Cells were washed twice, fixed and phosphoflow analysis performed as described in the FACS analysis section. The analysis was performed in triplicate and the mean fluorescence intensity (MFI) observed without stimulation was reported as 100%.

[3] = tested on: IL-7R internalization in Ba/F3-IL7R cells; assay: Colocalization of IL-7R with clathrin and Rab5 after IL-7 stimulation (immunofluorescence); assay type: cell-based, murine; details: Ba/F3-IL7R cells after IL-7 stimulation, vs vehicle; result in words
Method: For dynamic analysis of IL-7R internalization, 1 × 10^5 Ba/F3-IL-7R cells were incubated with Phycoerythrin (PE)-conjugated α-CD127 (A7R34, BioLegend) for 30 min on ice, washed twice in cold PBS 1×, resuspended in serum-free Dulbecco’s modified Eagle’s medium (DMEM) and stimulated with 50 ng/mL IL-7 at 37 °C for the indicated intervals. Cells were fixed, permeabilized and incubated with either α-clathrin (ab21679, Abcam Australia) or α-Rab5 (ab18211, Abcam Australia), as previously described. Washed cells were incubated in permeabilization buffer with donkey Alexa Fluor 488-conjugated anti-rabbit secondary antibody (A-21206, Molecular Probes, Life Technologies) for 1 h on ice. Cells were washed, incubated with 1 ng/mL 4′,6-diamidino-2-phenylindole for 15 min, washed twice and mounted using Mowiol mounting medium (81381, Sigma-Aldrich Pty Ltd, Castle Hill, NSW). For each independent experiment, at least 50 different fields of view were collected for blinded quantification, for each time point. All images were acquired using a Nikon A1r Plus SI inverted confocal microscope (Nikon Australia, Rhodes, NSW) using a Plan Apo ×60 oil objective.

CCCCCCCCNC(=O)C(C#N)=Cc1cn(CCCN(C)C)c2ccccc12 [Dynole 34-2, 2-Cyano-N-octyl-3-(1-(3-dimethylaminopropyl)-1H-indol-3-yl)-acrylamide]
viability at 200 µM ([1]; read-out: Relative % viable cells, T-ALL 249, dose 0.2 mM): 94.3%
viability at 40 µM ([1]; read-out: Relative % viable cells, T-ALL 257, dose 0.04 mM): 92.3%
viability at 200 µM ([1]; read-out: Relative % viable cells, T-ALL 257, dose 0.2 mM): 76.4%
viability at 200 µM ([1]; read-out: Relative % viable cells, T-ALL 273, dose 0.2 mM): 96.1%
viability at 200 µM ([1]; read-out: Relative % viable cells, T-ALL 582, dose 0.2 mM): 97.6%
viability at 40 µM ([1]; read-out: Relative % viable cells, T-ALL 588, dose 0.04 mM): 114%
Relative % viable cells ([1]; T-ALL 249, dose 0.2 (unit uncertain)): 101.0% and 98.6%
Relative % viable cells ([1]; T-ALL 249, dose 1 (unit uncertain)): 97.4%
Relative % viable cells ([1]; T-ALL 249, dose 5 (unit uncertain)): 98.6% and 97.8%
Relative % viable cells ([1]; T-ALL 249, dose 25 (unit uncertain)): 14.0%
Relative % viable cells ([1]; T-ALL 257, dose 0.04 (unit uncertain)): 86.6%
Relative % viable cells ([1]; T-ALL 257, dose 0.2 (unit uncertain)): 75.9%
Relative % viable cells ([1]; T-ALL 257, dose 1 (unit uncertain)): 71.8%
Relative % viable cells ([1]; T-ALL 257, dose 5 (unit uncertain)): 49.8%
Relative % viable cells ([1]; T-ALL 273, dose 0.2 (unit uncertain)): 96.5% and 91.9%
Relative % viable cells ([1]; T-ALL 273, dose 1 (unit uncertain)): 92.9% and 93.1%
Relative % viable cells ([1]; T-ALL 273, dose 5 (unit uncertain)): 56.4% and 42.9%
Relative % viable cells ([1]; T-ALL 273, dose 10 (unit uncertain)): 20.2% and 18.0%
Relative % viable cells ([1]; T-ALL 273, dose 25 (unit uncertain)): 17.9%
Relative % viable cells ([1]; T-ALL 582, dose 0.2 (unit uncertain)): 94.2%
Relative % viable cells ([1]; T-ALL 582, dose 1 (unit uncertain)): 97.3%
Relative % viable cells ([1]; T-ALL 582, dose 5 (unit uncertain)): 75.4% and 57.9%
Relative % viable cells ([1]; T-ALL 582, dose 10 (unit uncertain)): 8.4% and 8.6%
Relative % viable cells ([1]; T-ALL 582, dose 25 (unit uncertain)): 6.2%
Relative % viable cells ([1]; T-ALL 588, dose 0.04 (unit uncertain)): 111.1%
Relative % viable cells ([1]; T-ALL 588, dose 0.2 (unit uncertain)): 107.5% and 75.9%
Relative % viable cells ([1]; T-ALL 588, dose 1 (unit uncertain)): 100.1%
Relative % viable cells ([1]; T-ALL 588, dose 5 (unit uncertain)): 75.8%
Relative % viable cells ([1]; T-ALL 588, dose 25 (unit uncertain)): 11.9%
Relative % viable cells ([1]; T-ALL 742, dose 0.2 (unit uncertain)): 53.7% and 80.5%
Relative % viable cells ([1]; T-ALL 742, dose 1 (unit uncertain)): 25.7%
Relative % viable cells ([1]; T-ALL 742, dose 5 (unit uncertain)): 22.9%
Relative % viable cells ([1]; T-ALL 742, dose 25 (unit uncertain)): 0.0%
killing of LSCs from primary Lmo2^Tg T-ALL ([1]; result in words): dose-dependent killing
pStat5 (MFI) ([2]; Ba/F3-IL7R cells, +IL-7, Dynole 34-2 0.2): 2033 MFI and 1947 MFI and 1891 MFI
pStat5 (MFI) ([2]; Ba/F3-IL7R cells, +IL-7, Dynole 34-2 1.0): 1526 MFI and 1732 MFI and 1712 MFI
pStat5 (MFI) ([2]; Ba/F3-IL7R cells, +IL-7, Dynole 34-2 5.0): 1296 MFI and 1207 MFI and 1690 MFI
pStat5 (MFI) ([2]; Ba/F3-IL7R cells, +IL-7, Dynole 34-2 10.0): 1304 MFI and 1113 MFI and 1201 MFI
pStat5 (MFI) ([2]; Ba/F3-IL7R cells, +IL-7, Dynole 34-2 25.0): 1259 MFI and 1141 MFI and 1161 MFI
inhibition of IL-7 signalling as measured by loss of phospho-Stat5 ([2]; Ba/F3-IL7R cells, result in words): dose-dependent inhibition
IC50 ([2]; Mus musculus, Ba/F3-IL7R cells + IL-7, flow cytometry, read-out: IC50, inhibition of IL-7 signalling (pStat5)): 4.29 ± 0.77 µM
colocalization of IL-7R and clathrin [3]: no significant difference
colocalization of IL-7R with Rab5 [3]: markedly reduced
